Data taken from PubChem BioAssay (NCI).
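96-well plates; 48 h exposure; 5 concentrations. Endpoints by linear interpolation between flanking doses. Not reached: highest tested concentration assigned. TGI is the concentration that stops growth completely.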

Legend:
Assay in all cases: NCI anticancer screen, dose series, 48 h
CAKI-1 renal = system: CAKI-1 renal
SK-MEL-28 melanoma = system: SK-MEL-28 melanoma
SK-MEL-5 melanoma = system: SK-MEL-5 melanoma
MDA-N = system: MDA-N
HCT-116 colon = system: HCT-116 colon
NCI-H226 lung = system: NCI-H226 lung
RPMI-8226 leukemia = system: RPMI-8226 leukemia
SNB-19 CNS = system: SNB-19 CNS
COLO 205 colon = system: COLO 205 colon
HOP-92 NSCLC = system: HOP-92 NSCLC
BT-549 breast = system: BT-549 breast
M14 melanoma = system: M14 melanoma
SNB-75 CNS = system: SNB-75 CNS
NCI-H522 lung = system: NCI-H522 lung
A498 renal = system: A498 renal
OVCAR-4 ovarian = system: OVCAR-4 ovarian
OVCAR-5 ovarian = system: OVCAR-5 ovarian
UO-31 renal = system: UO-31 renal
IGROV1 ovarian = system: IGROV1 ovarian
DU-145 prostate = system: DU-145 prostate
MDA-MB-435 = system: MDA-MB-435
HS 578T breast = system: HS 578T breast
OVCAR-8 ovarian = system: OVCAR-8 ovarian
HCC-2998 colon = system: HCC-2998 colon
SF-268 CNS = system: SF-268 CNS
SF-295 CNS = system: SF-295 CNS
MALME-3M melanoma = system: MALME-3M melanoma
MDA-MB-231 breast = system: MDA-MB-231 breast
ACHN renal = system: ACHN renal
786-0 renal = system: 786-0 renal
TK-10 renal = system: TK-10 renal
UACC-62 melanoma = system: UACC-62 melanoma
A549 NSCLC = system: A549 NSCLC
SW-620 colon = system: SW-620 colon
HOP-62 NSCLC = system: HOP-62 NSCLC
T-47D breast = system: T-47D breast
LOX IMVI melanoma = system: LOX IMVI melanoma
NCI-H23 lung = system: NCI-H23 lung
HCT-15 colon = system: HCT-15 colon
OVCAR-3 ovarian = system: OVCAR-3 ovarian
MOLT-4 leukemia = system: MOLT-4 leukemia
MCF7 breast = system: MCF7 breast
SK-MEL-2 melanoma = system: SK-MEL-2 melanoma
UACC-257 melanoma = system: UACC-257 melanoma
CCRF-CEM leukemia = system: CCRF-CEM leukemia
EKVX NSCLC = system: EKVX NSCLC
PC-3 prostate = system: PC-3 prostate
SK-OV-3 ovarian = system: SK-OV-3 ovarian
K-562 leukemia = system: K-562 leukemia
NCI/ADR-RES ovarian = system: NCI/ADR-RES ovarian
HL-60(TB) leukemia = system: HL-60(TB) leukemia
RXF 393 renal = system: RXF 393 renal
U251 CNS = system: U251 CNS
HT29 colon = system: HT29 colon
KM12 colon = system: KM12 colon
SN12C renal = system: SN12C renal
NCI-H460 lung = system: NCI-H460 lung
SF-539 CNS = system: SF-539 CNS
SR leukemia = system: SR leukemia

For `C[C@H](C1CC(C)(O)C(C)(O)C(O)O1)[C@H]1CC[C@H]2[C@@H]3[C@@H]4O[C@@H]4[C@@]4(O)CC=CC(=O)[C@]4(C)[C@H]3CC[C@]12C` (some centres not stated), the TGI (CAKI-1 renal) was > 50 µM, the TGI (SK-MEL-28 melanoma) was > 50 µM and the TGI (SK-MEL-5 melanoma) was > 50 µM. For the same compound, the TGI (MDA-N) was > 50 µM, the TGI (HCT-116 colon) was > 50 µM and the TGI (NCI-H226 lung) was > 50 µM. The TGI (RPMI-8226 leukemia) was > 50 µM, the TGI (SNB-19 CNS) was > 50 µM and the TGI (COLO 205 colon) was > 50 µM. For the same compound, the TGI (HOP-92 NSCLC) was > 50 µM, the TGI (BT-549 breast) was > 50 µM and the TGI (M14 melanoma) was > 50 µM. For the same compound, the TGI (SNB-75 CNS) was > 50 µM, the TGI (NCI-H522 lung) was > 50 µM and the TGI (A498 renal) was > 50 µM. The TGI (OVCAR-4 ovarian) was > 50 µM, the TGI (OVCAR-5 ovarian) was > 50 µM and the TGI (UO-31 renal) was > 50 µM. For the same compound, the TGI (IGROV1 ovarian) was > 50 µM, the TGI (DU-145 prostate) was > 50 µM and the TGI (MDA-MB-435) was > 50 µM. For the same compound, the TGI (HS 578T breast) was 17.4 µM, the TGI (OVCAR-8 ovarian) was > 50 µM and the TGI (HCC-2998 colon) was > 50 µM. The TGI (SF-268 CNS) was > 50 µM, the TGI (SF-295 CNS) was > 50 µM and the TGI (MALME-3M melanoma) was 31.5 µM. The TGI (MDA-MB-231 breast) was > 50 µM, the TGI (ACHN renal) was > 50 µM and the TGI (786-0 renal) was > 50 µM. The TGI (TK-10 renal) was > 50 µM, the TGI (UACC-62 melanoma) was > 50 µM and the TGI (A549 NSCLC) was > 50 µM. For the same compound, the TGI (SW-620 colon) was > 50 µM, the TGI (HOP-62 NSCLC) was > 50 µM and the TGI (T-47D breast) was > 50 µM. The TGI (LOX IMVI melanoma) was > 50 µM, the TGI (NCI-H23 lung) was > 50 µM and the TGI (HCT-15 colon) was > 50 µM. The TGI (OVCAR-3 ovarian) was > 50 µM, the TGI (MOLT-4 leukemia) was > 50 µM and the TGI (MCF7 breast) was > 50 µM. The TGI (SK-MEL-2 melanoma) was > 50 µM, the TGI (UACC-257 melanoma) was > 50 µM and the TGI (CCRF-CEM leukemia) was > 50 µM. The TGI (EKVX NSCLC) was > 50 µM, the TGI (PC-3 prostate) was > 50 µM and the TGI (SK-OV-3 ovarian) was > 50 µM. For the same compound, the TGI (K-562 leukemia) was > 50 µM, the TGI (NCI/ADR-RES ovarian) was > 50 µM and the TGI (HL-60(TB) leukemia) was > 50 µM. For the same compound, the TGI (RXF 393 renal) was > 50 µM, the TGI (U251 CNS) was > 50 µM and the TGI (HT29 colon) was > 50 µM. The TGI (KM12 colon) was > 50 µM, the TGI (SN12C renal) was > 50 µM and the TGI (NCI-H460 lung) was > 50 µM.

For `COc1ccccc1/C=C/c1ccnc2ccccc12`, the TGI (SF-539 CNS) was 27.8 µM, the TGI (CAKI-1 renal) was 40.3 µM and the TGI (SK-MEL-28 melanoma) was 31.1 µM. The TGI (SK-MEL-5 melanoma) was 26.4 µM, the TGI (MDA-N) was 26.1 µM and the TGI (HCT-116 colon) was 26.5 µM. For the same compound, the TGI (NCI-H226 lung) was 29.5 µM, the TGI (RPMI-8226 leukemia) was 37.8 µM and the TGI (SNB-19 CNS) was 28.2 µM. It also gave a TGI (COLO 205 colon) of 33.2 µM, a TGI (HOP-92 NSCLC) of 26.2 µM and a TGI (BT-549 breast) of 24.4 µM. It also gave a TGI (M14 melanoma) of 29.7 µM, a TGI (SNB-75 CNS) of 17 µM and a TGI (A498 renal) of 29.5 µM. For the same compound, the TGI (OVCAR-4 ovarian) was 25.4 µM, the TGI (OVCAR-5 ovarian) was 32.4 µM and the TGI (IGROV1 ovarian) was 19.9 µM. The TGI (DU-145 prostate) was 30.8 µM, the TGI (MDA-MB-435) was 19.9 µM and the TGI (HS 578T breast) was 38.5 µM. For the same compound, the TGI (OVCAR-8 ovarian) was 30.2 µM, the TGI (HCC-2998 colon) was 31.3 µM and the TGI (SF-268 CNS) was 29.4 µM. For the same compound, the TGI (SF-295 CNS) was 27.2 µM, the TGI (MALME-3M melanoma) was 24.8 µM and the TGI (MDA-MB-231 breast) was 31.1 µM. It also gave a TGI (ACHN renal) of 32.8 µM, a TGI (786-0 renal) of 27.7 µM and a TGI (TK-10 renal) of 30.9 µM. For the same compound, the TGI (UACC-62 melanoma) was 24.5 µM, the TGI (A549 NSCLC) was 31 µM and the TGI (SW-620 colon) was 26.9 µM. The TGI (HOP-62 NSCLC) was 29.6 µM, the TGI (LOX IMVI melanoma) was 36 µM and the TGI (NCI-H23 lung) was 27.9 µM. The TGI (HCT-15 colon) was 25 µM, the TGI (OVCAR-3 ovarian) was 26.7 µM and the TGI (MOLT-4 leukemia) was 28 µM. The TGI (MCF7 breast) was 17.5 µM, the TGI (SK-MEL-2 melanoma) was 30.1 µM and the TGI (UACC-257 melanoma) was 29.5 µM. It also gave a TGI (CCRF-CEM leukemia) of 34.8 µM, a TGI (EKVX NSCLC) of 23 µM and a TGI (PC-3 prostate) of 27.3 µM. The TGI (SK-OV-3 ovarian) was 29.7 µM, the TGI (K-562 leukemia) was 30.7 µM and the TGI (NCI/ADR-RES ovarian) was 32.4 µM. The TGI (SR leukemia) was 35.7 µM, the TGI (HL-60(TB) leukemia) was 26 µM and the TGI (U251 CNS) was 24.2 µM. The TGI (HT29 colon) was 25.4 µM, the TGI (KM12 colon) was 25.3 µM and the TGI (SN12C renal) was 37.3 µM. The TGI (NCI-H460 lung) was 28.9 µM.
